Test results taken from ChEMBL document CHEMBL4507259 (2021).

How the values were obtained:
[1] = biological target: Ribosomal protein S6 kinase alpha-4 (Homo sapiens) (UniProt O75676); details: Compound concentration 1000.0 nM
[2] = biological target: Casein kinase I isoform epsilon (Homo sapiens) (UniProt P49674); details: Compound concentration 1000.0 nM
[3] = biological target: Calcium/calmodulin-dependent protein kinase type II subunit gamma (Homo sapiens) (UniProt Q13555); details: Compound concentration 1000.0 nM
[4] = biological target: T1, Muscarinic acetylcholine receptor M2 (Homo sapiens) (UniProt P08172); assay: M2 (h) CEREP ligand profiling; details: filed as antagonist, Compound concentration 10.0 uM
T1 sequence (whole entry): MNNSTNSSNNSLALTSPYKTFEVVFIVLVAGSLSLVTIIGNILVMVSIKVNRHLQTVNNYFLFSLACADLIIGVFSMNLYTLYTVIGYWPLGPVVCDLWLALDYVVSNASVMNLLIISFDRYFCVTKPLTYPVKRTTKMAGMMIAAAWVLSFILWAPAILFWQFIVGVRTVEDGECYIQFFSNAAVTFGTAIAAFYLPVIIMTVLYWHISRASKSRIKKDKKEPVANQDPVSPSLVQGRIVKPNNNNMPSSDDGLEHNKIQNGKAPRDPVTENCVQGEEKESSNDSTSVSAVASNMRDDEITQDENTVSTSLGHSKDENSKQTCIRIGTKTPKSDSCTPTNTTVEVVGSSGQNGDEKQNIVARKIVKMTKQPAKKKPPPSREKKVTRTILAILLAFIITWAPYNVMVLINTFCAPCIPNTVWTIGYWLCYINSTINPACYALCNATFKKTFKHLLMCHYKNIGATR

[5] = biological target: T2, Alpha-2A adrenergic receptor (Homo sapiens) (UniProt P08913); assay: alpha 2A (h) CEREP ligand profiling; details: filed as antagonist, Compound concentration 10.0 uM
T2 sequence (whole entry): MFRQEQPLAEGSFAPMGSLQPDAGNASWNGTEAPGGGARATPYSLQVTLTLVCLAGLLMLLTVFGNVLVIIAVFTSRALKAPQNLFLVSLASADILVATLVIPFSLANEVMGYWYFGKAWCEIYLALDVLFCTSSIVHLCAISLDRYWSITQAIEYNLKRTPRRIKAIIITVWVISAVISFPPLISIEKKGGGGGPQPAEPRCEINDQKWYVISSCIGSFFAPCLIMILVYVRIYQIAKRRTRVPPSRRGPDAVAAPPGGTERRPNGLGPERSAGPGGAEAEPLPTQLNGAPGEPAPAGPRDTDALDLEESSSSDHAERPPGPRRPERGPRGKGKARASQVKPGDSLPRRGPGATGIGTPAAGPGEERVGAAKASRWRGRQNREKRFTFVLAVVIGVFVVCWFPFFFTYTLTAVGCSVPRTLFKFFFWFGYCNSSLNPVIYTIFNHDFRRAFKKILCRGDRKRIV

[6] = biological target: Tyrosine-protein kinase ABL2 (Homo sapiens) (UniProt P42684); details: Compound concentration 1000.0 nM
[7] = biological target: Serine/threonine-protein kinase PAK 3 (Homo sapiens) (UniProt O75914); details: Compound concentration 1000.0 nM
[8] = biological target: Vasoactive intestinal polypeptide receptor 1 (Homo sapiens) (UniProt P32241); assay: VPAC1 (VIP1) (h) CEREP ligand profiling; details: filed as agonist, Compound concentration 10.0 uM
[9] = biological target: Mitogen-activated protein kinase kinase kinase 10 (Homo sapiens) (UniProt Q02779); details: Compound concentration 1000.0 nM
[10] = biological target: Insulin receptor (Homo sapiens) (UniProt P06213); details: Compound concentration 1000.0 nM
[11] = test system: Tyrosine-protein kinase ABL1 (Homo sapiens), P00519 [F317I]; details: Compound concentration 1000.0 nM
[12] = biological target: Tyrosine-protein kinase Blk (Homo sapiens) (UniProt P51451); details: Compound concentration 1000.0 nM
D(3) dopamine receptor = D(3) dopamine receptor (Homo sapiens, UniProt P35462); details: Compound concentration 10.0 uM
[13] = biological target: 5-hydroxytryptamine receptor 7 (Homo sapiens) (UniProt P34969); assay: 5-HT7 (h) CEREP ligand profiling; details: filed as agonist, Compound concentration 10.0 uM
[14] = test system: Receptor-type tyrosine-protein kinase FLT3 (Homo sapiens), P36888 [K663Q]; details: Compound concentration 1000.0 nM
[15] = biological target: D(2) dopamine receptor (Homo sapiens) (UniProt P14416); assay: D2S (h) CEREP ligand profiling; details: filed as antagonist, Compound concentration 10.0 uM
[16] = biological target: Mitogen-activated protein kinase kinase kinase kinase 2 (Homo sapiens) (UniProt Q12851); details: Compound concentration 1000.0 nM
[17] = biological target: TGF-beta receptor type-2 (Homo sapiens) (UniProt P37173); details: Compound concentration 1000.0 nM
[18] = biological target: MAP kinase-activated protein kinase 2 (Homo sapiens) (UniProt P49137); details: Compound concentration 1000.0 nM
[19] = biological target: 5-hydroxytryptamine receptor 1B (Homo sapiens) (UniProt P28222); assay: 5-HT1B CEREP ligand profiling; details: filed as antagonist; Compound concentration 10.0 uM
[20] = test system: Proto-oncogene tyrosine-protein kinase receptor Ret (Homo sapiens), P07949 [M918T]; details: Compound concentration 1000.0 nM
[21] = biological target: Ribosomal protein S6 kinase alpha-3 (Homo sapiens) (UniProt P51812); details: Compound concentration 1000.0 nM
[22] = biological target: cGMP-dependent protein kinase 2 (Homo sapiens) (UniProt Q13237); details: Compound concentration 1000.0 nM
[23] = biological target: Serine/threonine-protein kinase SIK2 (Homo sapiens) (UniProt Q9H0K1); details: Compound concentration 1000.0 nM
[24] = biological target: Dual specificity mitogen-activated protein kinase kinase 7 (Homo sapiens) (UniProt O14733); details: Compound concentration 1000.0 nM
[25] = biological target: Phosphatidylinositol 5-phosphate 4-kinase type-2 beta (Homo sapiens) (UniProt P78356); details: Compound concentration 1000.0 nM
[26] = biological target: Testis-specific serine/threonine-protein kinase 3 (Homo sapiens) (UniProt Q96PN8); details: Compound concentration 1000.0 nM
[27] = biological target: Serine/threonine-protein kinase 25 (Homo sapiens) (UniProt O00506); details: Compound concentration 1000.0 nM
[28] = test system: Phosphatidylinositol 4,5-bisphosphate 3-kinase catalytic subunit alpha isoform (Homo sapiens), P42336 [E545A]; details: Compound concentration 1000.0 nM
[29] = biological target: 5'-AMP-activated protein kinase catalytic subunit alpha-1 (Homo sapiens) (UniProt Q13131); details: Compound concentration 1000.0 nM
[30] = biological target: Interleukin-1 receptor-associated kinase 1 (Homo sapiens) (UniProt P51617); details: Compound concentration 1000.0 nM
[31] = biological target: High affinity nerve growth factor receptor (Homo sapiens) (UniProt P04629); details: Compound concentration 1000.0 nM

Sequence of Proto-oncogene tyrosine-protein kinase receptor Ret (Homo sapiens), P07949 [M918T] (P07949 whole entry M918T): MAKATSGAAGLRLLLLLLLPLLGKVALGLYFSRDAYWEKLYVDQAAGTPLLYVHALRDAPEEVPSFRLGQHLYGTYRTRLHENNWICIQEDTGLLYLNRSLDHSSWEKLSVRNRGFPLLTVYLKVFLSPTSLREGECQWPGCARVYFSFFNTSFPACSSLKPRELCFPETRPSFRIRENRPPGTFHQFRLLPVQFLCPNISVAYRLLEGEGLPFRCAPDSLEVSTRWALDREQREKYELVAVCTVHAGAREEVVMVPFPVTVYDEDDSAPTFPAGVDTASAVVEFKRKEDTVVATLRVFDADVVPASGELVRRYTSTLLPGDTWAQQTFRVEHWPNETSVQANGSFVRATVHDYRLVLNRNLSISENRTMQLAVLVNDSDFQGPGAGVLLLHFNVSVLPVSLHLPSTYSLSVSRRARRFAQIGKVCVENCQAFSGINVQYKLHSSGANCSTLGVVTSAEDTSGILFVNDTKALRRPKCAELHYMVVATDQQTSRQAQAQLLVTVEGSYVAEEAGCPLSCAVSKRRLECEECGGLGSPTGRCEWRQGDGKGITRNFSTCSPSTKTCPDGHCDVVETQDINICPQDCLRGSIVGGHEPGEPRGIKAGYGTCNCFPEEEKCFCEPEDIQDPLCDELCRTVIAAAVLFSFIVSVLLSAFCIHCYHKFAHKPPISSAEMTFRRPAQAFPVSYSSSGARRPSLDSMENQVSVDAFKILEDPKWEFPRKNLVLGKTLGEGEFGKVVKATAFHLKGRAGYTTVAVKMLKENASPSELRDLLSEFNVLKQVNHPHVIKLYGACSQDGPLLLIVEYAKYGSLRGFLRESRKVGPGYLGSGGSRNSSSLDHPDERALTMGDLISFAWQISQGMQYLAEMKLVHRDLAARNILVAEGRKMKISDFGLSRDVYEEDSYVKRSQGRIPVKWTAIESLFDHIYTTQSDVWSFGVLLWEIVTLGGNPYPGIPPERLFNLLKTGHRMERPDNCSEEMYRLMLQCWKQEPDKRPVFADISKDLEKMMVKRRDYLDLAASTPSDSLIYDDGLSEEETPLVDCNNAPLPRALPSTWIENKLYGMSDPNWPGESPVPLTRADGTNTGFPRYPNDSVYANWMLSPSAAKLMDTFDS
Sequence of D(3) dopamine receptor (P35462 whole entry): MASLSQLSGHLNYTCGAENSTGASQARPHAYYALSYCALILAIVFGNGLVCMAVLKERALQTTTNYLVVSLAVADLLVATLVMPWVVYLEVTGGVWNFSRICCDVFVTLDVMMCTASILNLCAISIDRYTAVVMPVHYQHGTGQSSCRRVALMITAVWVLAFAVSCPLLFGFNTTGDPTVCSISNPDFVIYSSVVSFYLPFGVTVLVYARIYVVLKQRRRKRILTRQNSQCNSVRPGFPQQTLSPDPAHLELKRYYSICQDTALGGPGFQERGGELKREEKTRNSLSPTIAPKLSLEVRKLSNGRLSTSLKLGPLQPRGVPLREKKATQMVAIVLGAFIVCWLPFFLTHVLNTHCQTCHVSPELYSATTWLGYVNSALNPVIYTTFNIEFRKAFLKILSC
Sequence of cGMP-dependent protein kinase 2 (Homo sapiens) (Q13237 whole entry): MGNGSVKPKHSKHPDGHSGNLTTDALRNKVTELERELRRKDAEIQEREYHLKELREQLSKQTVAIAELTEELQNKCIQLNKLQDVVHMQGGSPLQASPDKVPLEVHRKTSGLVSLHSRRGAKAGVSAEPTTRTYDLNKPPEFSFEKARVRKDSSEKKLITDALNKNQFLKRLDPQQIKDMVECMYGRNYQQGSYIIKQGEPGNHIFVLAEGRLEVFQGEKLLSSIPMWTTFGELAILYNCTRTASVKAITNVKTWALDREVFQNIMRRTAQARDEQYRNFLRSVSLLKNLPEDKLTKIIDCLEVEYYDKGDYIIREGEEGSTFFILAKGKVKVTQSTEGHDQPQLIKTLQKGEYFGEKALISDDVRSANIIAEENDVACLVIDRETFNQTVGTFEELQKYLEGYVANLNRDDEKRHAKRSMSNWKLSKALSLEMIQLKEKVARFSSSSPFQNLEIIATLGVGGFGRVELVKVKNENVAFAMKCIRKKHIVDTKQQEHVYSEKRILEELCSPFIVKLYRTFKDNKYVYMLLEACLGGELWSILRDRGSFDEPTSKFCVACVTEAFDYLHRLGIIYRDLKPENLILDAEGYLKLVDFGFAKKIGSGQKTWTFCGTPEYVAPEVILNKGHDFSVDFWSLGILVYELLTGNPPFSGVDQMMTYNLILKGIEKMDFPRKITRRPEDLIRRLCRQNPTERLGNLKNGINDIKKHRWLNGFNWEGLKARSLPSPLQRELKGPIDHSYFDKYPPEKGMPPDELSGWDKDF
Sequence of Interleukin-1 receptor-associated kinase 1 (Homo sapiens) (P51617 whole entry, looked up): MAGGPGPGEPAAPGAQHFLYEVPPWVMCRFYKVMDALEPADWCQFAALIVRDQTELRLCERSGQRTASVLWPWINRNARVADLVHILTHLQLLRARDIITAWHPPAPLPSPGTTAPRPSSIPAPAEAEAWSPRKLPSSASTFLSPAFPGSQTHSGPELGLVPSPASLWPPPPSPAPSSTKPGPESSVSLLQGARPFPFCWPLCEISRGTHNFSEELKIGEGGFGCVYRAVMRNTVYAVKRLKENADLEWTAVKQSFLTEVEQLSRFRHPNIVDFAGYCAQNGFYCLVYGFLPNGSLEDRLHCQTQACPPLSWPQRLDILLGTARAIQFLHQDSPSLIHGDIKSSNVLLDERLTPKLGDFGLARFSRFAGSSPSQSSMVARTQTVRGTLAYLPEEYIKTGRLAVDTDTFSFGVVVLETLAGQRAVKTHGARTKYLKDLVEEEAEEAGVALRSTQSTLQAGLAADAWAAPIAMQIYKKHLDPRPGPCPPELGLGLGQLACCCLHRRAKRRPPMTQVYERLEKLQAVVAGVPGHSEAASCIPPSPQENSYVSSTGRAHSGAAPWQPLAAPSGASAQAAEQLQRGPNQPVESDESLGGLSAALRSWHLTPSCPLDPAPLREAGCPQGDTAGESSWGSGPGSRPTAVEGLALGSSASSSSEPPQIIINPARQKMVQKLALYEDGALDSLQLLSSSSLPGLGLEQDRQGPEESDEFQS
Sequence of 5-hydroxytryptamine receptor 1B (Homo sapiens) (P28222 whole entry): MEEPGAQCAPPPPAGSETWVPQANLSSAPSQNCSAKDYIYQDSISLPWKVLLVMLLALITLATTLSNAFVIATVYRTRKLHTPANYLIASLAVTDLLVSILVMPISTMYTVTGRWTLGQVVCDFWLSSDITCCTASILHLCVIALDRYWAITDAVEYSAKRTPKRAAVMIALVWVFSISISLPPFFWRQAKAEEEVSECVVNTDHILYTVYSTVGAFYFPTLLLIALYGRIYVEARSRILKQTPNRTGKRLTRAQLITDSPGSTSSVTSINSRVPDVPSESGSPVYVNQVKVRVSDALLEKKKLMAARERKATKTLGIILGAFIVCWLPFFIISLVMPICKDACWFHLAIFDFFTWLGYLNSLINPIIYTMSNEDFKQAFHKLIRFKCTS
Sequence of Serine/threonine-protein kinase PAK 3 (Homo sapiens) (O75914 whole entry, looked up): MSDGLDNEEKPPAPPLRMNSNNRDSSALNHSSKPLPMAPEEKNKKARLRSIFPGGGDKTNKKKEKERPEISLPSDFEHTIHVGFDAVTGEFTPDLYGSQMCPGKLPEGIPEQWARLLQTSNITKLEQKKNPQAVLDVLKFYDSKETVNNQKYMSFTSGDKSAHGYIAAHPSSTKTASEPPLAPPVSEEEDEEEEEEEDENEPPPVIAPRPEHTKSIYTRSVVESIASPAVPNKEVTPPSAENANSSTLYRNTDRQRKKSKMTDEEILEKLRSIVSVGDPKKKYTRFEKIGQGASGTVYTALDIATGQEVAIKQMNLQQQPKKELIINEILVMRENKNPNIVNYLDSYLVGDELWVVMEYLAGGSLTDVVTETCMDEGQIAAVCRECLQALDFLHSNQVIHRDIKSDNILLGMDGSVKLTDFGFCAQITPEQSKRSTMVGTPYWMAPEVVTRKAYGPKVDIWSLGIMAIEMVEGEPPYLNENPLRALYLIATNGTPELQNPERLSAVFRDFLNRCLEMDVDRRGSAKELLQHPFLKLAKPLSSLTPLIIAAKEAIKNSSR
Sequence of Serine/threonine-protein kinase 25 (Homo sapiens) (O00506 whole entry, looked up, canonical isoform): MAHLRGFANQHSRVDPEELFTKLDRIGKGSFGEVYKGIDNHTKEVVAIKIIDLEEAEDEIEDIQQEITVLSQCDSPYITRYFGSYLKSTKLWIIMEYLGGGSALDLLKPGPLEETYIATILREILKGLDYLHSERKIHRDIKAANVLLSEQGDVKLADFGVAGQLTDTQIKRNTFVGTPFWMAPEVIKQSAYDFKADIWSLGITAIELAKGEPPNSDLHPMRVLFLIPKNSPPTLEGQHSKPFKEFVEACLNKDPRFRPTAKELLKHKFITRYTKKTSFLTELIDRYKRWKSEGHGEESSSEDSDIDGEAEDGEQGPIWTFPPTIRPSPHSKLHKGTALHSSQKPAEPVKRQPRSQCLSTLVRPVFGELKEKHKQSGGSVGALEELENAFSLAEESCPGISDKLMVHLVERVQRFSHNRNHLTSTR
Sequence of Phosphatidylinositol 5-phosphate 4-kinase type-2 beta (Homo sapiens) (P78356 whole entry): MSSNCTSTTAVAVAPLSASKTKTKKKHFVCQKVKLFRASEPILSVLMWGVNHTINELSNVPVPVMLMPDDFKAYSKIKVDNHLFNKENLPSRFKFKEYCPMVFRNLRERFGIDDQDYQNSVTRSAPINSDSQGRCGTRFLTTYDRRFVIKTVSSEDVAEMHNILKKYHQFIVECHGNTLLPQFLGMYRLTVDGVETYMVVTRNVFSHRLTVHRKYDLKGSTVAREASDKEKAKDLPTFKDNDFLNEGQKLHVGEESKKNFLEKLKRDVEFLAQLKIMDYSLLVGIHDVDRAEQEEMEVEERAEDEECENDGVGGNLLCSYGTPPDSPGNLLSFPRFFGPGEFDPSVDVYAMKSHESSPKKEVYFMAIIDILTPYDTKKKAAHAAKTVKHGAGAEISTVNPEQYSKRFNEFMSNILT

Row | SMILES | residual activity [1] [%] | residual activity [2] [%] | residual activity [3] [%] | inhibition [4] [%] | inhibition [5] [%] | residual activity [6] [%] | residual activity [7] [%] | inhibition [8] [%] | residual activity [9] [%] | residual activity [10] [%] | residual activity [11] [%] | residual activity [12] [%] | inhibition (D(3) dopamine receptor) [%] | inhibition [13] [%] | residual activity [14] [%] | inhibition [15] [%] | residual activity [16] [%] | residual activity [17] [%] | residual activity [18] [%] | inhibition [19] [%] | also measured
1 | CNC(=O)Nc1ccc2c(c1)CC[C@@]21OC(=O)N(CC(=O)N(Cc2ccc(F)cc2)[C@@H](C)C(F)(F)F)C1=O [A-485] | 72 | 80 | 76 | -5 | 11 | 88 | 91 | -5 | 57 | 81 | 87 | 100 | 1.52 | 16 | 100 | 13 | 76 | 90 | 87 | -6 | residual activity [20]: 95%; residual activity [21]: 88%; residual activity [22]: 86%; residual activity [23]: 88%; residual activity [24]: 97%; residual activity [25]: 69%; residual activity [26]: 88%; residual activity [27]: 99%; residual activity [28]: 91%; residual activity [29]: 100%; residual activity [30]: 71%; residual activity [31]: 81%
2 | CNC(=O)Nc1ccc2c(c1)[C@@]1(CC2)OC(=O)N(CC(=O)N(Cc2ccc(F)cc2)[C@@H](C)C(F)(F)F)C1=O [A-486] | 88 | 80 | 98 | -8 | -7 | 84 | 91 | -8 | 73 | 73 | 73 | 100 | 57.8 | 6 | 84 | -3 | 92 | 95 | 100 | -9 | residual activity [20]: 100%; residual activity [21]: 75%; residual activity [22]: 85%; residual activity [23]: 88%; residual activity [24]: 85%; residual activity [25]: 60%; residual activity [26]: 100%; residual activity [27]: 100%; residual activity [28]: 97%; residual activity [29]: 91%; residual activity [30]: 88%; residual activity [31]: 41%
